Among the test systems are SK-MEL-2; MOLT-4; RPMI-8226; OVCAR-3; A498; TK-10; SK-OV-3; UACC-257; SK-MEL-5; Hs-578T; COLO 205; CCRF-CEM; DU-145; MDA-MB-435; LOX IMVI; BT-549; K562; KM12; PC-3; NCI/ADR-RES.
Holding throughout (test): inhibition of tumour cell growth, NCI panel, 48 h

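1) Cells in 96-well plates. 2) Compound, 48 h, 5 concentrations. 3) Linear interpolation between surrounding doses. 4) Unreached endpoint = highest concentration. Abbreviation: GI50, concentration required for 50% inhibition of growth.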 Activity calls are given as the source filed them. No stated cut-off is given here; in the data, active = GI50 up to about 1.1 µM and inactive = higher.

Consider `COc1ccc2oc(=N)c(C(=O)Nc3ccccc3)cc2c1`, for which the GI50 was 17.2 µM (inactive) in the experiment on SK-MEL-2; 13.8 µM (inactive) in the experiment with MOLT-4; 15.7 µM (inactive) with RPMI-8226; 30.5 µM (inactive) with OVCAR-3; 17.1 µM (inactive) in the experiment on A498; 57.5 µM (inactive) with TK-10. Besides, the GI50 with SK-OV-3 was 10.9 µM (inactive); in the experiment with UACC-257 it was 62.5 µM (inactive); with SK-MEL-5, 25.8 µM (inactive); in the experiment on Hs-578T, 15 µM (inactive); in the experiment on COLO 205, 30.1 µM (inactive); with CCRF-CEM it was 7.23 µM (inactive). Further, the GI50 was 33.7 µM (inactive) in the experiment on DU-145; 15.3 µM (inactive) in the experiment with MDA-MB-435; 31.6 µM (inactive) with LOX IMVI; 17.7 µM (inactive) in the experiment with BT-549; 1.26 µM (inactive) with K562; 24.7 µM (inactive) in the experiment with KM12. Also, the GI50 in the experiment on PC-3 was 32.9 µM (inactive); in the experiment with NCI/ADR-RES, 16.9 µM (inactive).
As to `C[C@]12CC[C@H]3[C@@H](CCC4=CC(=O)CC[C@@H]43)[C@@H]1CC[C@@H]2OC1(O)C(=O)c2ccccc2C1=O`, the GI50 is 75.9 µM (inactive) in the experiment with SK-MEL-2; 33.3 µM (inactive) in the experiment on MOLT-4; 26.2 µM (inactive) in the experiment with RPMI-8226; 39.4 µM (inactive) with OVCAR-3; 48.5 µM (inactive) in the experiment on A498; 32.5 µM (inactive) in the experiment with TK-10. For the same compound, the GI50 in the experiment with SK-OV-3 was > 100 µM (inactive); in the experiment with UACC-257, 28.5 µM (inactive); in the experiment with SK-MEL-5, 19.5 µM (inactive); in the experiment on Hs-578T, 11.2 µM (inactive); in the experiment with COLO 205, 24.4 µM (inactive); in the experiment on CCRF-CEM, 31.4 µM (inactive). Further, the GI50 in the experiment on DU-145 is 16.5 µM (inactive); in the experiment with MDA-MB-435, 32.7 µM (inactive); in the experiment with LOX IMVI, 37.5 µM (inactive); with BT-549, 66.8 µM (inactive); with K562, 35.3 µM (inactive); in the experiment with KM12, > 100 µM (inactive). In addition, the GI50 with PC-3 was 60.5 µM (inactive); in the experiment with NCI/ADR-RES it was 63 µM (inactive).
On to `C=C(CO[Si](C)(C)C(C)(C)C)C(C)=O`, for which the GI50 in the experiment on SK-MEL-2 is 20.5 µM (inactive); in the experiment with MOLT-4, 2.18 µM (inactive); in the experiment with RPMI-8226 it was 4.88 µM (inactive); in the experiment with OVCAR-3, 20.4 µM (inactive); in the experiment on A498 it was > 100 µM (inactive); with TK-10, > 100 µM (inactive). Moreover, the GI50 in the experiment on SK-OV-3 is > 89.3 µM (inactive); with UACC-257 it was 18 µM (inactive); with SK-MEL-5, 14.6 µM (inactive); in the experiment with Hs-578T it was 25.8 µM (inactive); with COLO 205, 24.5 µM (inactive); in the experiment on CCRF-CEM it was 0.678 µM (active). In addition, the GI50 is > 100 µM (inactive) with DU-145; 17.6 µM (inactive) in the experiment with MDA-MB-435; 4.94 µM (inactive) with LOX IMVI; 20.2 µM (inactive) with BT-549; 6.73 µM (inactive) in the experiment with K562; 58.1 µM (inactive) in the experiment on KM12. In addition, the GI50 in the experiment on PC-3 and in the experiment with NCI/ADR-RES was 26.9 µM (inactive) each time.
`Cc1cc(/N=C2\C=C(Nc3cc(C)on3)C(=O)c3ccccc32)no1`: the GI50 in the experiment with SK-MEL-2 is 17.1 µM (inactive); in the experiment with MOLT-4, > 100 µM (inactive); with RPMI-8226, > 100 µM (inactive); in the experiment with OVCAR-3, > 100 µM (inactive); in the experiment with A498 it was > 100 µM (inactive); in the experiment with TK-10, 55 µM (inactive). In addition, the GI50 in the experiment on SK-OV-3 was 77.8 µM (inactive); with UACC-257 it was 13.9 µM (inactive); in the experiment with SK-MEL-5, 1.82 µM (inactive); in the experiment with Hs-578T, 13.2 µM (inactive); in the experiment on COLO 205 it was 31.3 µM (inactive); in the experiment on CCRF-CEM, > 100 µM (inactive). Further, the GI50 with DU-145 is 52.5 µM (inactive); with MDA-MB-435 it was 7.24 µM (inactive); in the experiment with LOX IMVI it was 8.71 µM (inactive); with BT-549, 27.5 µM (inactive); with K562, > 100 µM (inactive); with KM12 it was > 71.8 µM (inactive). For the same compound, the GI50 in the experiment with PC-3 was > 100 µM (inactive); in the experiment on NCI/ADR-RES, 69 µM (inactive).
Turning to `Cc1cc(C)c2c(=N)c3ccccc3n(CCCCCCn3c4ccccc4c(=N)c4c(C)cc(C)nc43)c2n1`, the GI50 in the experiment on SK-MEL-2 was 1.66 µM (inactive); in the experiment with MOLT-4, 0.627 µM (active); in the experiment on RPMI-8226, 0.305 µM (active); in the experiment on OVCAR-3, 1.66 µM (inactive); in the experiment on A498, 1.73 µM (inactive); with TK-10 it was 1.64 µM (inactive). Besides, the GI50 with SK-OV-3 was 1.62 µM (inactive); in the experiment with UACC-257, 1.64 µM (inactive); in the experiment with SK-MEL-5 it was 1.84 µM (inactive); in the experiment with Hs-578T it was 1.66 µM (inactive); with COLO 205, 1.57 µM (inactive); with CCRF-CEM, 0.266 µM (active). Further, the GI50 with DU-145 is 1.74 µM (inactive); in the experiment on MDA-MB-435 it was 1.77 µM (inactive); in the experiment with LOX IMVI it was 0.182 µM (active); with BT-549, 1.56 µM (inactive); with K562 it was 0.3 µM (active); with KM12 it was 0.346 µM (active). The GI50 in the experiment on PC-3 was 1.28 µM (inactive); in the experiment with NCI/ADR-RES it was 1.42 µM (inactive).
`O=C1/C(=C2\SCC(=O)N2c2ccccc2)SC(=S)N1c1ccccc1`: the GI50 is 27.3 µM (inactive) in the experiment with SK-MEL-2; 17.7 µM (inactive) with MOLT-4; 36.3 µM (inactive) with RPMI-8226; 27.8 µM (inactive) in the experiment with OVCAR-3; 40.4 µM (inactive) in the experiment on A498; 28.7 µM (inactive) in the experiment on TK-10. The GI50 in the experiment on SK-OV-3 is 23.6 µM (inactive); in the experiment with UACC-257 it was 42.8 µM (inactive); in the experiment with SK-MEL-5, 46.7 µM (inactive); in the experiment with Hs-578T it was 34.5 µM (inactive); with COLO 205, 67 µM (inactive); in the experiment with CCRF-CEM, 37.2 µM (inactive). Moreover, the GI50 was 34 µM (inactive) with DU-145; 32.1 µM (inactive) in the experiment on MDA-MB-435; 32.7 µM (inactive) in the experiment with LOX IMVI; 2.82 µM (inactive) in the experiment with BT-549; 36.1 µM (inactive) in the experiment on K562; 51.9 µM (inactive) in the experiment on KM12. Also, the GI50 in the experiment with PC-3 was 28.6 µM (inactive); in the experiment on NCI/ADR-RES it was 27 µM (inactive).
For `CCOC(=O)Nn1c(C)nnc1-c1ccccc1`, the GI50 in the experiment on SK-MEL-2, in the experiment with MOLT-4, with RPMI-8226, in the experiment on OVCAR-3, with A498 and in the experiment on TK-10 was > 100 µM (inactive) throughout. Further, the GI50 with SK-OV-3 is 61.7 µM (inactive); in the experiment with UACC-257 it was > 100 µM (inactive); in the experiment on SK-MEL-5, > 100 µM (inactive); in the experiment on Hs-578T, > 100 µM (inactive); in the experiment on COLO 205 it was > 100 µM (inactive); with CCRF-CEM, > 100 µM (inactive). Moreover, the GI50 with DU-145, with MDA-MB-435, in the experiment with LOX IMVI, with BT-549, in the experiment on K562 and in the experiment with KM12 was > 100 µM (inactive) throughout. The GI50 with PC-3 and in the experiment on NCI/ADR-RES was > 100 µM (inactive) each time.

The values above are taken from ChEMBL document CHEMBL1201862, “PubChem BioAssay data set” (2004).
